Where “and” joins values, the source holds several entries; their conditions need not be identical. Equal entries are not always repeated. Where two headings read alike, the source gives them in different places.
How the values were obtained:
human AChE [1] = biological target: T1, human AChE (Homo sapiens, UniProt P22303); experiment: In vitro single-concentration screening, AChE activity (adapted Ellman assay); assay type: biochemical; conditions: read-out: inhibition of AChE activity
T1 construct: purchased Sigma C1682
Protocol: (§1) All of the drugs were tested at a final concentration of 100 μM.
(§2) The screening of the in silico hits toward the BChE and AChE enzymatic activity was done by an adapted high-throughput assay version of Ellman′s colorimetric assay.[59],[60] The reagents, butyrylthiocholine iodide (BTC), acetylthiocholine iodide (ATC), and 5,5′-dithiobis(2-nitrobenzoic acid) (DTNB), were purchased from Sigma-Aldrich (St. Louis, MO). The modified assay details are as previously described.[6],[44] The main modification concerned the high-throughput adaptation of the assay for use in 384-well plates. Briefly, 25 μL/well of a 1:450 diluted solution of pooled human plasma and 1:768 diluted (3.5 ng/mL final concentration) purified recombinant human AChE protein (Sigma, Cat no. C1682) was used for measurement of the BChE and AChE activity, respectively. These enzymes’ concentrations were used since they are representative of the activity of these enzymes in the human cerebrospinal fluid (CSF).
(§3) To the control wells, the vehicle solution was added to get the reference enzyme activity (100%). (2) Then, 25 μL of a working solution of BChE or AChE was added to all wells. The plate was then incubated for 10–30 min at room temperature. (3) The reaction was then started by adding 25 μL of a cocktail mix prepared in Na/K phosphate buffer to all wells, containing DTNB (final concentration 0.4 mM) and BTC (final concentration 1 mM) or ATC (final concentration 0.5 mM). The changes in the absorbance were monitored at 412 nm wavelength for 15–20 min at 1 min intervals, using a microplate spectrophotometer reader (Infinite M1000, Tecan). The rate of the enzyme activity was determined from the slope of the linear part of the kinetic reaction curves. In all steps, the working solution concentrations were 3 times of the final concentrations of each component in the final volume of 75 μL in each well. The final screening concentration of the compounds was 100 μM. […]

[2] = Plasma / in vivo drug concentrations in humans (literature pharmacokinetics); conditions: using a molecular weight of 325.39
human recombinant ChAT = experiment: In vitro single-concentration screening against choline acetyltransferase; assay type: biochemical; conditions: single concentration 100 μM
Protocol: as §1

human plasma BChE [3] = biological target: T2, human plasma BChE (Homo sapiens, UniProt P06276); experiment: biochemical; assay type: biochemical; conditions: single concentration 100 μM
T2 construct: 25 μL/well of a 1:450 diluted solution of pooled human plasma; from tissue; host or cells: pooled human plasma, diluted 1:450, BChE not purified
Protocol: as §1, §2, §3

human plasma BChE [4] = biological target: T2, human plasma BChE; experiment: biochemical; conditions: for Ki: inhibition constant (Ki) against human BChE
From the text: as §2
(§4) For BChE, the final BTC concentrations in the wells ranged from 5 mM to […], which were prepared as a 2-fold serial dilution. For AChE, the final ATC concentrations in the wells ranged from 0.5 mM to […], prepared as a 2-fold serial dilution series.
(§5) In all enzyme inhibition kinetic assays, the concentrations of AChE and BChE were chosen so that the enzyme activities were representative of the activity of these enzymes in the human CSF, which is about 20 and 10 nmol/min/mL CSF for AChE and BChE, respectively.[49]
(§6) For the enzyme inhibition kinetic analyses, the order of steps was as follows: (1) 25 μL/well of the compound or the vehicle control was added in quadruplicates, with respect to each compound concentration, in a 384-well plate. (2) Then, 25 μL of each substrate concentration was added to the wells in quadruples. (3) The reaction was then started by adding 25 μL of a master mix to all wells, containing the enzyme working solution and DTNB. The final concentration of the enzyme and DTNB as well as the buffer composition was the same as mentioned above for the screening assay. Then, the plate was immediately placed in the microplate spectrophotometer reader (Infinite M1000, Tecan) and the changes in the absorbance were continuously monitored at 2 min intervals for 15–20 min at 412 nm wavelength. The rate of the enzyme activity was extracted as the slope of the initial linear part of the kinetic reaction curves.
The data were then transferred and processed using GraphPad Prism 9 analysis software.[15] The half-maximal inhibitory concentration (IC50) values were calculated by plotting the percentage enzyme activity versus the log concentrations of the compound. The inhibitory constant (Ki) values were determined from the enzyme inhibition kinetic analyses using the nonlinear regression function in the software. A statistical comparison of the ligand’s mode of activity was also done using GraphPad software between the competitive equation versus the mixed-competitive, noncompetitive, and uncompetitive equations.[61] A competitive mode of action means that the inhibitor reversibly binds to the substrate′s binding site. Thus, the inhibition of the enzyme is modifiable by a high concentration of the substrate via displacement. […] When the behavior of a ligand is not fully uniform, and the mixed-competitive fitting equation is statistically the best fitting option, the ligand is called a mixed-competitive one. This is determined through a general equation that includes the other three modes of actions. Through this equation, the software provides an additional parameter, called α, which determines the mechanism of action of the inhibitor. For instance, when α is equal to one, the inhibitor′s affinity for the free enzyme and the enzyme–substrate complex is equal, i.e., the inhibitor behaves mainly noncompetitively. […] When α is very large, the inhibitor behaves mainly as a competitive ligand. A very small α (but not <0) is indicative of an uncompetitive mode of action.[61]

human AChE [5] = biological target: T1, human AChE; experiment: IC50 and enzyme inhibition kinetic analyses on AChE; assay type: biochemical
From the text: as §2, §4, §5, §6
The data were then transferred and processed using GraphPad Prism 9 analysis software.[15] The half-maximal inhibitory concentration (IC50) values were calculated by plotting the percentage enzyme activity versus the log concentrations of the compound. The inhibitory constant (Ki) values were determined from the enzyme inhibition kinetic analyses using the nonlinear regression function in the software. A statistical comparison of the ligand’s mode of activity was also done using GraphPad software between the competitive equation versus the mixed-competitive, noncompetitive, and uncompetitive equations.[61] A competitive mode of action means that the inhibitor reversibly binds to the substrate′s binding site. Thus, the inhibition of the enzyme is modifiable by a high concentration of the substrate via displacement. […] In the case of an uncompetitive mode of activity, the inhibitor has an affinity to the enzyme–substrate complex, but not the free enzyme. When the behavior of a ligand is not fully uniform, and the mixed-competitive fitting equation is statistically the best fitting option, the ligand is called a mixed-competitive one. This is determined through a general equation that includes the other three modes of actions. Through this equation, the software provides an additional parameter, called α, which determines the mechanism of action of the inhibitor. For instance, when α is equal to one, the inhibitor′s affinity for the free enzyme and the enzyme–substrate complex is equal, i.e., the inhibitor behaves mainly noncompetitively. […] When α is very large, the inhibitor behaves mainly as a competitive ligand. […]

BChE = tested on: BChE; set-up: method as in PMID 17196712, PMID 16868793, PMID 20205672, PMID 19199870; conditions: at therapeutic concentrations; cited from earlier work
[6] = cited from earlier work
[7] = biological target: norepinephrine uptake carrier; conditions: read-out: Ki, norepinephrine uptake carrier; radioligand binding; cited from earlier work
[8] = cited from earlier work; remark: listed apart in the source
human BChE = conditions: cited from earlier work
[9] = tested on: muscarinic, histaminergic, α1-adrenergic, serotonergic, dopaminergic, and opioid receptors; conditions: radioligand binding; cited from earlier work
[10] = high substrate range, up to 5 mM
[11] = human, multiple doses of 30 mg twice daily
[12] = micromolar substrate range (up to 0.5 mM)

T2 sequence (P06276 29-602): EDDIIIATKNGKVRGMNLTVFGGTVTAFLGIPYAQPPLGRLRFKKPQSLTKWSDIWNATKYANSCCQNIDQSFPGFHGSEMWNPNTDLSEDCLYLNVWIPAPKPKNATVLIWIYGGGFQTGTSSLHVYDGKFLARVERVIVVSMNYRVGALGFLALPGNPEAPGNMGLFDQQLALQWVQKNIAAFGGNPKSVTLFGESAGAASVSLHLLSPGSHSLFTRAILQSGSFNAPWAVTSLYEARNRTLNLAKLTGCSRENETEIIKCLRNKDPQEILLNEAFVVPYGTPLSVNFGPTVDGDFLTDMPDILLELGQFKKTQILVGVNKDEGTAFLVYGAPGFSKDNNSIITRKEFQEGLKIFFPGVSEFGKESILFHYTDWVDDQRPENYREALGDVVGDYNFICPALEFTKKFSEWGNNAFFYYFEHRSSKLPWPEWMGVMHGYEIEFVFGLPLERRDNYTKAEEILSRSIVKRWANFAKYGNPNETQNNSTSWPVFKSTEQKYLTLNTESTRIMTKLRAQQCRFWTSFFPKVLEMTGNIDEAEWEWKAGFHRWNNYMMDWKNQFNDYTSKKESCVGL
T1 sequence (P22303 32-614): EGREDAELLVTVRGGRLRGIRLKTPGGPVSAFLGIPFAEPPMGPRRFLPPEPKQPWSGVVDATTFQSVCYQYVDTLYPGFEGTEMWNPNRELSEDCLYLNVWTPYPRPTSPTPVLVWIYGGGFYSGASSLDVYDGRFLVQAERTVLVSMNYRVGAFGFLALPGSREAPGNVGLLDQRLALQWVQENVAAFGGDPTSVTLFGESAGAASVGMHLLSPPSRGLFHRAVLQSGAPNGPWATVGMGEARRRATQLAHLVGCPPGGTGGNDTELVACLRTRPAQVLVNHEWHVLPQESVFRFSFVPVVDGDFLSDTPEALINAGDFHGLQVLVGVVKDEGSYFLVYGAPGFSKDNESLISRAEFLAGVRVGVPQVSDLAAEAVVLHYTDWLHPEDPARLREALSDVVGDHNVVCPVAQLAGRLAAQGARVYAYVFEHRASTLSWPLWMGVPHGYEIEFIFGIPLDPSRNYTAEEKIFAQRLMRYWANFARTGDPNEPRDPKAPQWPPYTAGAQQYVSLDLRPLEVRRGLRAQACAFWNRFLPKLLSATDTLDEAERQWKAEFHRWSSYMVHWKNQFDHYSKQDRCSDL

With `CN(C)CCCC1(c2ccc(F)cc2)OCc2cc(C#N)ccc21` (stereo not drawn) [citalopram] the inhibition at 100 µM (human AChE [1]) was ~60%, the “molar concentration (maximum, from ng/mL)” value [2] was “at most 0.86 μM” and the “effect on the activity of human ChAT” value (human recombinant ChAT) was “neither duloxetine nor citalopram/escitalopram affected the activity”. For the same compound, the inhibition at 100 µM (human plasma BChE [3]) was ~55%, the “BChE potency ratio Ki Escit / Ki Cit” value (human plasma BChE [4]; 203/42) was 4.8 and the “mode of inhibition of BChE” value (human plasma BChE [4]; [10]) was “mixed-competitive”. For the same compound, the Ki (human plasma BChE [4]; [10]) was 42000 nM, the Ki (human AChE [5]) was 58800 nM and the “mode of inhibition of AChE” value (human AChE [5]; enzyme inhibition kinetics) was “noncompetitive”.
In the case of `COc1cc2c(cc1OC)C(=O)C(CC1CCN(Cc3ccccc3)CC1)C2` (stereo not drawn) [donepezil], the “inhibitory effect on BChE” value (BChE) is given as “completely devoid of any inhibitory effect”.
In the case of `CNCC[C@H](Oc1cccc2ccccc12)c1cccs1` [duloxetine], the “effect on cognition in the elderly” value ([6]; 8-week double-blind placebo-controlled trial) is listed as “improved cognition”, the “cognitive effect in patients with major depressive disorders” value ([6]; 12-week study) is listed as “significant cognitive improvements across several domains” and the “risk of developing dementia compared to citalopram-treated patients” value ([6]; pharmacoepidemiologic study, patients with depression) is listed as “significantly lower risk of developing dementia”. For the same compound, the Ki [7] was 2.1 nM, the inhibition at 100 µM (human AChE [1]) was ~35% and the “maximum steady-state plasma concentration” value [8, 11] was 142 nM. For the same compound, the “minimum steady-state plasma concentration” value [8, 11] was 84 nM, the “normal in vivo concentration range in human patients” value ([8]; normal dosages) was 100 to 400 nM and the Cmax ([8]; read-out: plasma Cmax, human, single dose of 30–90 mg) was 70 to 180 nM. The “inhibition of human BChE” value (human BChE; 10 μM) was “over 70%”, the IC50 (human BChE; read-out: IC50 against human BChE, substrate and its concentration not reported) was 1200 nM and the “affinity for muscarinic, histaminergic, α1-adrenergic, serotonergic, dopaminergic, and opioid receptors” value [9] was “lacks the pharmacologically relevant affinity”. For the same compound, the “effect on the activity of human ChAT” value (human recombinant ChAT) was “neither duloxetine nor citalopram/escitalopram affected the activity”, the “inhibition of plasma BChE activity” value (human plasma BChE [3]) was “fully inhibited” and the IC50 (human plasma BChE [4]) was 9700 nM. For the same compound, the “times as potent as physostigmine in inhibiting BChE” value (human plasma BChE [4]; Ki 210 nM vs […] nM) was 4 times, the “mode of inhibition of BChE” value (human plasma BChE [4]; [10]) was “competitive” and the Ki (human plasma BChE [4]; [10]) was ~351 nM and 350 nM. The Ki (human plasma BChE [4]; [12]) was 210 nM, the “mode of inhibition of BChE” value (human plasma BChE [4]; [12]) was “competitive” and the “mode of inhibition of AChE” value (human AChE [5]; enzyme inhibition kinetics) was “mixed-competitive”. The Ki (human AChE [5]; inhibition constant (Ki) against human AChE, nonlinear regression, enzyme inhibition kinetics) was 65500 nM and ~56500 nM.
In the case of `CN(C)CCC[C@@]1(c2ccc(F)cc2)OCc2cc(C#N)ccc21` [escitalopram], the inhibition at 100 µM (human AChE [1]) is reported as ~60%, the “molar concentration (maximum, from ng/mL)” value [2] is reported as “at most 0.86 μM” and the “effect on the activity of human ChAT” value (human recombinant ChAT) is reported as “neither duloxetine nor citalopram/escitalopram affected the activity”. For the same compound, the inhibition at 100 µM (human plasma BChE [3]) was ~10%, the “mode of inhibition of BChE” value (human plasma BChE [4]; [10]) was “mixed-competitive” and the Ki (human plasma BChE [4]; [10]) was 203000 nM. For the same compound, the Ki (human AChE [5]) was 32800 nM, the “AChE potency ratio Ki Cit / Ki Escit” value (human AChE [5]; 59/33) was 1.8 and the “mode of inhibition of AChE” value (human AChE [5]; enzyme inhibition kinetics) was “mixed-competitive”.
For `CCN(CC)C(C)CN1c2ccccc2Sc2ccccc21` (stereo not drawn) [ethopropazine], the “mode of inhibition of BChE” value (human plasma BChE [4]; [10]) was “mixed-competitive”, the Ki (human plasma BChE [4]; [10]) was 150 nM and the Ki (human plasma BChE [4]; low substrate concentrations (up to 0.5 mM)) was 154 nM. The Ki (human plasma BChE [4]; [12]) was ~155 nM and the “mode of inhibition of BChE” value (human plasma BChE [4]; [12]) was “Mixed-competitive inhibitor”.
In the case of `COc1ccc2c3c1O[C@H]1C[C@@H](O)C=C[C@@]31CCN(C)C2` [galantamine], the “inhibitory effect on BChE” value (BChE) is listed as “completely devoid of any inhibitory effect”.
For `CNC(=O)Oc1ccc2c(c1)[C@]1(C)CCN(C)[C@@H]1N2C` [physostigmine], the “mode of inhibition of BChE” value (human plasma BChE [4]; [10]) was “Competitive inhibitor”.
